In paper PMC8404199, “Structure–Activity Relationships of Triple-Action Platinum(IV) Prodrugs with Albumin-Binding Properties and Immunomodulating Ligands” (Journal of Medicinal Chemistry, 2021):
Like-named read-outs stand apart in the source and are kept apart here.

How the values were obtained:
[1] = tested on: human HCT116 colon cancer cells; test: MTT cytotoxicity assay in HCT116 cells; assay type: cell-based
Description: (§1) Cells were additionally incubated with 5-fold equimolar concentrations of ascorbic acid to increase the reduction rate of the compounds. Cell viability was measured by the MTT-based vitality assay (EZ4U; Biomedica, Vienna, Austria), following the manufacturer’s recommendations.

[2] = log D7.4 determination by shake flask method and ICP-MS; assay type: physicochemical; conditions: n-octanol/phosphate buffer pH 7.4, Pt by ICP-MS
Description: 50 mM stock solutions of the succinimide complexes in DMF were diluted in phosphate buffer (20 mM, pH 7.4, pre-saturated with n-octanol) to a final concentration of 50 μM drug and 0.1% DMF. The platinum content of these aqueous solutions was measured by ICP–MS (see above). The solutions were mixed 1:1 with n-octanol and shaken on a 360° rotatable rack for 3 h. The solutions were centrifuged for 5 min (860g, RT), the aqueous layers were carefully removed, and their Pt content was measured by ICP–MS. Experiments were performed and measured in duplicates, and averages were used for further calculations. log D7.4 values were calculated by the following equation [drawing 1]

[3] = tested on: human hepatic cell line (WRL68); test: MTT cytotoxicity assay in non-malignant WRL68 cells; assay type: cell-based; conditions: 72 h
Description: (§2) The cells were seeded at 3500–6000 cells/well in 96-well plates depending on the proliferation rate of the respective cell line and allowed to recover for 24 h. Subsequently, the cells were treated at indicated concentrations for 48 or 72 h. Cells were additionally incubated with 5-fold equimolar concentrations of ascorbic acid to increase the reduction rate of the compounds. Cell viability was measured by the MTT-based vitality assay (EZ4U; Biomedica, Vienna, Austria), following the manufacturer’s recommendations.

[4] = UHPLC reduction experiments with L-ascorbic acid; assay type: physicochemical; conditions: 1 mM complex, 10-fold excess AA, phosphate buffer pH 7.4, 1% DMF, 20 °C
Description: The platinum(IV)–succinimide complexes were dissolved in 2% DMF in phosphate buffer (500 mM, pH 7.4) to a final concentration of 2 mM. The solutions were then mixed 1:1 with a 20 mM stock of L-ascorbic acid in phosphate buffer (500 mM, pH 7.4) to obtain final concentrations of 1 mM complex, 10 mM L-ascorbic acid, and 1% DMF. The samples were incubated at 20 °C and measured on a Dionex UltiMate 3000 RS UPLC system with a Waters Acquity UPLC BEH C18 column (3 × 50 mm, pore size 1.7 μm) and absorption detection at 220 nm. Data points were taken at t = 0 and every 30 min for 6 h.

human SKOV3 cancer cells = test: MTT cytotoxicity assay in SKOV3 cells; assay type: cell-based; conditions: 72 h incubation
Description: as §2

[5] = tested on: human embryonic kidney cells (HEK293); test: MTT cytotoxicity assay in non-malignant HEK293 cells; assay type: cell-based; conditions: 72 h
Description: as §2

SKOV3 cancer cells = test: Long-term cytotoxicity assay (crystal violet) in SKOV3 cells; assay type: cell-based, human; conditions: 168 h, crystal violet stain, mean ± SD
Description: SKOV3 cells were seeded in duplicates at 5000 cells/well in 24-well plates and allowed to recover for 24 h. Subsequently, the cells were treated at the indicated concentrations for 168 h. Cells were fixed with ice-cold methanol (20 min at 4 °C), washed with PBS, and stained with crystal violet. Subsequently, colony formation was inspected, and the fluorescence signal was detected using Typhoon Trio imager (GE Healthcare, Little Chalfont, UK) at 610/30 nm BP and analyzed by ImageJ software.

[6] = tested on: VM7 melanoma cancer cells; test: MTT cytotoxicity assay in VM7 cells; assay type: cell-based, human; conditions: 72 h
Description: as §2

albumin = molecular target: T1, albumin (Bos taurus, UniProt P02769); test: SEC-ICP-MS albumin binding and serum stability in fetal calf serum; assay type: in vitro ADME; conditions: FCS + 150 mM phosphate buffer pH 7.4, 37 °C
T1 construct: FCS was purchased from Sigma-Aldrich and buffered with 150 mM phosphate buffer (pH 7.4); tissue Sigma-Aldrich; host or cells: fetal calf serum
T1 sequence (P02769 25-607): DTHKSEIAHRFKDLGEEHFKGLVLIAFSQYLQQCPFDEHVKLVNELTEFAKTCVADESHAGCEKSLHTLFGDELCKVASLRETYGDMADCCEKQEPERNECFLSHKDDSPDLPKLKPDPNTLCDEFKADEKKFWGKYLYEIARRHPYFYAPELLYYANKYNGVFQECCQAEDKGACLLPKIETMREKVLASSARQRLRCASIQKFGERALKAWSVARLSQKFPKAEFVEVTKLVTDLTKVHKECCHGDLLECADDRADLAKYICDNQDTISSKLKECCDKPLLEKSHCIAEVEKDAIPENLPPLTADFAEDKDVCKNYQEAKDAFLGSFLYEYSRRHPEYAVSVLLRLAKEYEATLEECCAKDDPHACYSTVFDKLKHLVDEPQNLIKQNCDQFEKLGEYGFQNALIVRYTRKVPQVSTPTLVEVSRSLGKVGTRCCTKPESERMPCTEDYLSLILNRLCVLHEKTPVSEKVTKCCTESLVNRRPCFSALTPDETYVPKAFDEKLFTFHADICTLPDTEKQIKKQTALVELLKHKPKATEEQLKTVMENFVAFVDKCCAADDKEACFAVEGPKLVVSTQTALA
Description: FCS was purchased from Sigma-Aldrich and buffered with 150 mM phosphate buffer (pH 7.4) to guarantee a stable pH. The maleimide-bearing platinum(IV) complexes were dissolved in 10% DMF in 150 mM phosphate buffer (pH 7.4) to 1 mM and diluted 1:10 in serum to obtain a final concentration of 100 μM. The samples were then incubated in the autosampler at 37 °C for 24 h and analyzed every 1 h. Between each sample, a pure water blank was measured. For SEC–ICP–MS measurements, an Agilent 1260 Infinity system coupled to an Agilent 7800 ICP–MS equipped with a dynamic reaction cell was used. Oxygen (purity 5.5, Messer Austria GmbH, Gumpoldskirchen, Austria) was used as reaction gas.

SKOV3 cell lysates = test: Reduction and 1-MDT release in SKOV3 lysates; assay type: in vitro ADME, human; conditions: 100 μM, 37 °C
Description: SKOV3 cells were grown in four T225 […] cell culture flasks to reach a high cell number. On the day of cell lysate isolation, cells were washed with PBS, scraped from the surface, and centrifuged. Each cell pellet was lysed in ∼160 μL lysis buffer (15 mM NaCl 0.5% Triton X, ultrapure) and incubated on ice for 1 h. The samples were then centrifuged for 15 min at 14,000 rpm (4 °C), and the cleared lysate was pooled and kept at −80 °C until analysis. Cell lysates were treated with 2 mM stock solutions of respective complexes in 4% DMF and phosphate buffer (100 mM, pH 7.4) to obtain a final compound concentration of 100 μM and incubated at 37 °C. After 0, 4, 24, and 72 h, three volume equivalents of cold MeOH were added to sample aliquots. Samples were stored at 4 °C for 10 min and centrifuged (15,080g, 4 °C, 10 min). LC–MS analysis of the supernatant was performed on an Agilent 1260 Infinity system using a Waters Atlantis T3 column (150 mm × 4.6 mm) and absorption detection at 230 nm, coupled to a Bruker amaZon SL ESI-IT mass spectrometer. Milli-Q water, containing 0.1% formic acid, and acetonitrile, containing 0.1% formic acid, were used as eluents. A gradient of 1–99% acetonitrile in 20 min was used.

[7] = tested on: murine CT26 colon cancer cells; test: MTT cytotoxicity assay in CT26 cells; assay type: cell-based
Description: as §1

[8] = 48 h incubation, with 5 equiv AA, read-out: HCT116 IC50 values +AA, mean ± SD
[9] = 48 h incubation, without AA, read-out: HCT116 IC50 values, mean ± SD
[10] = 72 h incubation, with 5 eq. AA, read-out: HCT116 IC50 values + 5 eq. AA, mean
[11] = 72 h incubation, without AA, read-out: HCT116 IC50 values, mean
[12] = with 5 eq. AA, read-out: SKOV3 IC50 values + 5 eq. AA, mean
[13] = without AA, read-out: SKOV3 IC50 values, mean
[14] = 48 h incubation, with 5 equiv AA, read-out: CT26 IC50 values +AA, mean ± SD
[15] = 48 h incubation, without AA, read-out: CT26 IC50 values, mean ± SD
[16] = 72 h incubation, with 5 eq. AA, read-out: CT26 IC50 values + 5 eq. AA, mean
[17] = 72 h incubation, without AA, read-out: CT26 IC50 values, mean

Which IC50 [1, 8] does the source give for Cn1cc(CC([NH3+])C(=O)[O][Pt]23([O]C(=O)NCCCCCN4C(=O)CCC4=O)([NH]C4CCCCC4[NH]2)[O]C(=O)C(=O)[O]3)c2ccccc21.O=C([O-])C(F)(F)F [SucCa/IdoEs, (OC-6-34)-[(R)-2-Ammonio-3-(1-methyl-1H-indol-3-yl)propanoato][(1R,2R)-1,2-cyclohexanediamino][5-(2,5-dioxo-2,5-dihydro-1H-pyrrolidin-1-yl)pentylcarbamato]oxalatoplatinum(IV) Trifluoroacetate] here?
The IC50 was 7.36 ± 1.14 µM.

What about the IC50 [1, 9] of the same compound?
The IC50 was 26 ± 3.21 µM.

And the IC50 [1, 10]?
The IC50 was 5.35 µM.

And the IC50 [1, 11]?
The IC50 was 7.23 µM.

What about the “log D7.4” value [2] of the same compound?
The value was “–0.16”.

What about the IC50 [3] of the same compound?
Its IC50 is 76.4 µM.

And the “time until complex completely reduced” value [4]?
Its value is no more than 2 h.

What about the IC50 (human SKOV3 cancer cells; [12]) of the same compound?
Its IC50 is greater than 100 µM.

And the IC50 (human SKOV3 cancer cells; [13])?
Its IC50 is greater than 100 µM.

And the IC50 [5]?
Its IC50 is 33.2 µM.

And the IC50 (SKOV3 cancer cells)?
The IC50 was 18.4 ± 3 µM.

And the IC50 [6]?
Its IC50 is greater than 100 µM.

And the “albumin binding in serum (in words)” value (albumin)?
Its value is “significant binding to albumin (tR ~4 min) could be observed for any of the compounds”.

And the “1-MDT release after 72 h” value (SKOV3 cell lysates)?
The value was roughly 100%.

And the IC50 [7, 14]?
Its IC50 is 10.8 ± 1.04 µM.

What about the IC50 [7, 15] of the same compound?
The IC50 was 60.1 ± 6.49 µM.

What about the IC50 [7, 16] of the same compound?
The IC50 was 16.9 µM.

And the IC50 [7, 17]?
Its IC50 is 31.9 µM.

For Cn1cc(C[C@@H](NC(=O)[O][Pt]2([O]C(=O)CCCCCN3C(=O)CCC3=O)[O]C(=O)C(=O)[O]2)C(=O)O)c2ccccc21.N[C@@H]1CCCC[C@H]1N [SucEs/IdoCa], which “ratio (IC50 without AA / with AA), HCT116” value ([1]; 48 h) is on record?
Its value is no less than 2.8.

What about the IC50 [1, 8] of the same compound?
Its IC50 is 35.4 ± 6.54 µM.

And the IC50 [1, 9]?
Its IC50 is greater than 100 µM.

What about the “ratio (IC50 without AA / with AA), HCT116” value ([1]; 72 h) of the same compound?
The value was 3.94.

And the IC50 [1, 10]?
The IC50 was 20.8 µM.

And the IC50 [1, 11]?
The IC50 was 82.1 µM.

What about the “log D7.4” value [2] of the same compound?
Its value is “–2.02”.

And the IC50 [3]?
The IC50 was greater than 100 µM.

What about the “complex intact after 6 h” value [4] of the same compound?
Its value is 90%.

What about the IC50 (human SKOV3 cancer cells; [12]) of the same compound?
Its IC50 is greater than 100 µM.

And the IC50 (human SKOV3 cancer cells; [13])?
The IC50 was greater than 100 µM.

And the IC50 [5]?
The IC50 was 77.5 µM.

What about the IC50 (SKOV3 cancer cells) of the same compound?
Its IC50 is 53.1 ± 4.5 µM.

What about the IC50 [6] of the same compound?
Its IC50 is greater than 100 µM.

And the “albumin binding in serum (in words)” value (albumin)?
Its value is “significant binding to albumin (tR ~4 min) could be observed for any of the compounds”.

And the “still present as platinum(IV) species after 72 h” value (SKOV3 cell lysates)?
The value was roughly 50%.

What about the “ratio (IC50 without AA / with AA), CT26” value ([7]; 48 h) of the same compound?
The value was no less than 3.

What about the IC50 [7, 14] of the same compound?
Its IC50 is 26.7 ± 0.75 µM.

And the IC50 [7, 15]?
The IC50 was greater than 100 µM.

And the “ratio (IC50 without AA / with AA), CT26” value ([7]; 72 h)?
Its value is 1.97.

What about the IC50 [7, 16] of the same compound?
The IC50 was 46 µM.

What about the IC50 [7, 17] of the same compound?
Its IC50 is 90.5 µM.

Which results are given for Cn1cc(C[C@@H]([NH3+])C(=O)[O][Pt]2([O]C(=O)CCCCCN3C(=O)CCC3=O)[O]C(=O)C(=O)[O]2)c2ccccc21.N[C@@H]1CCCC[C@H]1N.O=C([O-])C(F)(F)F [SucEs/IdoEs, (OC-6-44)-[(R)-2-Ammonio-3-(1-methyl-1H-indol-3-yl)propanoato][(1R,2R)-1,2-cyclohexanediamino][6-(2,5-dioxopyrrolidin-1-yl)hexanoato]oxalatoplatinum(IV) Trifluoroacetate]?
IC50 [1, 8]: 6.94 ± 0.33 µM; IC50 [1, 9]: 22.8 ± 1.15 µM; IC50 [1, 10]: 4.89 µM; IC50 [1, 11]: 5.45 µM; log D7.4 [2]: –0.30; IC50 [3]: 81.7 µM; time until complex completely reduced [4]: ≤ 2 h; IC50 (human SKOV3 cancer cells; [12]): > 100 µM; IC50 (human SKOV3 cancer cells; [13]): > 100 µM; IC50 [5]: 44.2 µM; IC50 (SKOV3 cancer cells): 19.4 ± 1.2 µM; IC50 [6]: > 100 µM; albumin binding in serum (in words) (albumin): significant binding to albumin (tR ~4 min) could be observed for any of the compounds; 1-MDT release after 72 h (SKOV3 cell lysates): ~100%; IC50 [7, 15]: 91.5 ± 3.84 µM; IC50 [7, 16]: 18.1 µM; IC50 [7, 17]: 44.9 µM
